pEC50: −log10 of the molar value. Where two headings read alike, the source gives them in different places.
Molecular target: CFTR (Homo sapiens, UniProt P13569)
Test: Membrane potential dye, Enteroid Assay B
Type: cell-based
Conditions: for pEC50: read-out: Ent. B EC50; for Ent. B Max Activity: chloride transport as % of triple combination control (Enteroid Assay B)
Method in brief: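 Human intestinal enteroids were treated with compound in maintenance medium for 18-24 h at 37° C, then loaded with methyl oxonol membrane-potential dye (25 min, room temperature). Chloride transport was triggered in chloride-free buffer with 10 μM forskolin, 100 μM IBMX and 300 nM Compound III, fluorescence read 15 min; expressed as % of triple-combination control.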

[1] = Table 8, human enteroid cells, 18-24 hours, acute 10 μM forskolin and 300 nM ivacaftor

Sequence of CFTR (P13569 with tags, fused parts or gaps DEL508-508): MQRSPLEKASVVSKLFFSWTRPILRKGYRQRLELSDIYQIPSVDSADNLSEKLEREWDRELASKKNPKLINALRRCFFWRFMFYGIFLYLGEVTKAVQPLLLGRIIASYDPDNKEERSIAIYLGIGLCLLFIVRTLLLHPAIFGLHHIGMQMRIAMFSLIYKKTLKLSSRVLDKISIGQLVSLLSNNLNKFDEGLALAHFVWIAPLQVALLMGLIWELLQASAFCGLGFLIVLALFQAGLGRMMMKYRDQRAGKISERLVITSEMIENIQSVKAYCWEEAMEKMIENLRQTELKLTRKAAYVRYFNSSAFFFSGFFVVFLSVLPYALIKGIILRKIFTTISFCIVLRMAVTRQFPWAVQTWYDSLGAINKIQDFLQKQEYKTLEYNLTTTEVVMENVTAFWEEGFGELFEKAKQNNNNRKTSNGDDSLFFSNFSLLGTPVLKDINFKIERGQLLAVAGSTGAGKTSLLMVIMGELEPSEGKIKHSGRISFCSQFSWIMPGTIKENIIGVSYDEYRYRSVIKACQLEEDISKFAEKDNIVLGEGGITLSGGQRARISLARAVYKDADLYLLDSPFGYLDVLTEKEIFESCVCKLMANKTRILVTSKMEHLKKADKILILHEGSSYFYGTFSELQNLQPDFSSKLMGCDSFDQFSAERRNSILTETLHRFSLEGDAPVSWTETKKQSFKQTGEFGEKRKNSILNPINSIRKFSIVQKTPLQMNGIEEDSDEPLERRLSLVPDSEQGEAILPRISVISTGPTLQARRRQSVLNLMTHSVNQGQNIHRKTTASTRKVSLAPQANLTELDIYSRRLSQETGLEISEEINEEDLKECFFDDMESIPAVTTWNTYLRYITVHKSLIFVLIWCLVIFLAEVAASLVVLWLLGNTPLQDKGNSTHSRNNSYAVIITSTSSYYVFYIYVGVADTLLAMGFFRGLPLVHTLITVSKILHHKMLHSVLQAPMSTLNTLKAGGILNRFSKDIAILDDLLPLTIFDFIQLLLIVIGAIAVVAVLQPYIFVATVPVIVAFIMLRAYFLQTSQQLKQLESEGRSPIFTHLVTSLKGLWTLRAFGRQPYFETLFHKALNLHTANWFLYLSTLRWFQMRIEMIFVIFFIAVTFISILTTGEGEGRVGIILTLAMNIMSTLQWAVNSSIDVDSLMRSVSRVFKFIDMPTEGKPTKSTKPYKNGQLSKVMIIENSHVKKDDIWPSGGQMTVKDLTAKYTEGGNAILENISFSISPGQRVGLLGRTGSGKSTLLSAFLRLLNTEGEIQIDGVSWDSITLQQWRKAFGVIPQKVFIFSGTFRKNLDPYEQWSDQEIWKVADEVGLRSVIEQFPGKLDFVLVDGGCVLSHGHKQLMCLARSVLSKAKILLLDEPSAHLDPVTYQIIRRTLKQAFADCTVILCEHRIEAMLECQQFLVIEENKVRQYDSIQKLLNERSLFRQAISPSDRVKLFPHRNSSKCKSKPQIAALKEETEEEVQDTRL

Compound	Ent. B Max Activity (%) (Table 9)	pEC50 (Table 9)	Ent. B Max Activity (Table 8)	pEC50 [1]
Cc1cccc(C)c1-c1cc2nc(n1)NS(=O)(=O)c1cccc(c1)C(=O)N(Cc1nc3ccccc3o1)[C@H](CC(C)(C)C)CO2 [Compound 803]	+++ (+++ is >600%)	> 6.00		
Cc1cccc(C)c1-c1cc2nc(n1)NS(=O)(=O)c1cccc(c1)C(=O)N(Cc1ncc(F)cn1)[C@H](CC(C)(C)C)CO2 [Compound 804]	+++ (+++ is >600%)	> 6.00		
Cc1cccc(C)c1-c1cc2nc(n1)NS(=O)(=O)c1cccc(c1)C(=O)N(Cc1ncc(Cl)cn1)[C@H](CC(C)(C)C)CO2 [Compound 805]	+++ (+++ is >600%)	> 6.00		
Cc1cccc(C)c1-c1cc2nc(n1)NS(=O)(=O)c1cccc(c1)C(=O)N(Cc1ccc(C(F)(F)F)cn1)[C@H](CC(C)(C)C)CO2 [Compound 806]	+++ (+++ is >600%)	> 6.00		
Cc1cccc(C)c1-c1cc2nc(n1)NS(=O)(=O)c1cccc(c1)C(=O)N(Cc1ncc(Br)cn1)[C@H](CC(C)(C)C)CO2 [Compound 807]	+++ (+++ is >600%)	> 6.00		
Cc1cccc(C)c1-c1cc2nc(n1)NS(=O)(=O)c1cccc(c1)C(=O)N(CC1Cc3ccccc3C1)[C@H](CC(C)(C)C)CO2 [Compound 808]			+++ (+++ is >60%)	> 6.00
Cc1cccc(C)c1-c1cc2nc(n1)NS(=O)(=O)c1cccc(c1)C(=O)N(Cc1ccc(CC(=O)N(C)C)cc1)[C@H](CC(C)(C)C)CO2 [Compound 845]	+++ (+++ is >600%)	> 6.00		
CNC(=O)Cc1ccc(CN2C(=O)c3cccc(c3)S(=O)(=O)Nc3nc(cc(-c4c(C)cccc4C)n3)OC[C@H]2CC(C)(C)C)cc1 [Compound 846]	+++ (+++ is >600%)	> 6.00		
Cc1cccc(C)c1-c1cc2nc(n1)NS(=O)(=O)c1cccc(c1)C(=O)N(Cc1ccc(CC(N)=O)cc1)[C@H](CC(C)(C)C)CO2 [Compound 847]	+++ (+++ is >600%)	> 6.00		
Cc1cccc(C)c1-c1cc2nc(n1)NS(=O)(=O)c1cccc(c1)C(=O)N(Cc1ccc(CC(C)(C)O)cc1)[C@H](CC(C)(C)C)CO2 [Compound 848]			+++ (+++ is >60%)	> 6.00
Cc1cccc(C)c1-c1cc2nc(n1)NS(=O)(=O)c1cccc(c1)C(=O)N(Cc1cc(C(C)(C)O)n(C)n1)[C@H](CC(C)(C)C)CO2 [Compound 849]			+++ (+++ is >60%)	> 6.00
Cc1cccc(C)c1-c1cc2nc(n1)NS(=O)(=O)c1cc(n(C)n1)C(=O)N(Cc1cnccn1)[C@H](CC(C)(C)C)CO2 [Compound 921]			+++ (+++ is >60%)	> 6.00
CCOC(=O)CCCCN1C(=O)c2cc(nn2C)S(=O)(=O)Nc2nc(cc(-c3c(C)cccc3C)n2)OC[C@H]1CC(C)(C)C [Compound 922]			++ (++ is 30-60%)	4.52 to 5.52
Cc1cccc(C)c1-c1cc2nc(n1)NS(=O)(=O)c1cc(n(C)n1)C(=O)N(Cc1ccc(C(C)(C)O)cc1)[C@H](CC(C)(C)C)CO2 [Compound 923]			+++ (+++ is >60%)	> 6.00
Cc1cnc(CN2C(=O)c3cc(nn3C)S(=O)(=O)Nc3nc(cc(-c4c(C)cccc4C)n3)OC[C@H]2CC(C)(C)C)nc1 [Compound 924]	+++ (+++ is >600%)	> 6.00		
Cc1ncc(CN2C(=O)c3cc(nn3C)S(=O)(=O)Nc3nc(cc(-c4c(C)cccc4C)n3)OC[C@H]2CC(C)(C)C)cn1 [Compound 925]			++ (++ is 30-60%)	> 6.00
Cc1cccc(C)c1-c1cc2nc(n1)NS(=O)(=O)c1cc(n(C)n1)C(=O)N(Cc1ccccc1)[C@H](CC(C)(C)C)CO2 [Compound 926]			++ (++ is 30-60%)	4.52 to 5.52

Compound	Ent. B Max Activity (%) (Table 9)	pEC50 (Table 9)	Ent. B Max Activity (Table 8)	pEC50 [1]
Cc1cccc(C)c1-c1cc2nc(n1)NS(=O)(=O)c1cc(nn1C)C(=O)N(Cc1ccc(C(C)(C)O)cc1)[C@H](CC(C)(C)C)CO2 [Compound 927]			++ (++ is 30-60%)	> 6.00
Cc1cccc(C)c1-c1cc2nc(n1)NS(=O)(=O)c1cc(nn1C)C(=O)N(Cc1ccccc1)[C@H](CC(C)(C)C)CO2 [Compound 928]			++ (++ is 30-60%)	> 6.00
Cc1cccc(C)c1-c1cc2nc(n1)NS(=O)(=O)c1cc(n(C)n1)C(=O)N(Cc1ncccn1)[C@H](CC(C)(C)C)CO2 [Compound 929]			+++ (+++ is >60%)	> 6.00
Cc1cccc(C)c1-c1cc2nc(n1)NS(=O)(=O)c1cc(n(C)n1)C(=O)N(Cc1ccccn1)[C@H](CC(C)(C)C)CO2 [Compound 930]			+++ (+++ is >60%)	> 6.00
Cc1cccc(C)c1-c1cc2nc(n1)NS(=O)(=O)c1cc(nn1C)C(=O)N(Cc1cccnn1)[C@H](CC(C)(C)C)CO2 [Compound 931]			+ (+ is <30%)	5.52 to 6.00
Cc1cccc(C)c1-c1cc2nc(n1)NS(=O)(=O)c1cc(nn1C)C(=O)N(Cc1ccncn1)[C@H](CC(C)(C)C)CO2 [Compound 932]			+ (+ is <30%)	> 6.00
Cc1cccc(C)c1-c1cc2nc(n1)NS(=O)(=O)c1cc(nn1C)C(=O)N(Cc1cccnc1)[C@H](CC(C)(C)C)CO2 [Compound 933]			+ (+ is <30%)	
Cc1cccc(C)c1-c1cc2nc(n1)NS(=O)(=O)c1cc(nn1C)C(=O)N(Cc1ccccn1)[C@H](CC(C)(C)C)CO2 [Compound 934]			++ (++ is 30-60%)	> 6.00
COCCCN1C(=O)c2cccc(c2)S(=O)(=O)Nc2nc(cc(-c3c(C)cccc3C)n2)OC[C@H]1CC(C)C [Compound 980]			+++ (+++ is >60%)	> 6.00
Cc1cccc(C)c1-c1cc2nc(n1)NS(=O)(=O)c1cccc(c1)C(=O)N(CC1CC(C(C)(C)O)C1)[C@H](CC(C)(C)C)CO2 (some centres unmarked) [Compound 1020]			+++ (+++ is >60%)	> 6.00
Cc1cccc(C)c1-c1cc2nc(n1)NS(=O)(=O)c1cccc(c1)C(=O)N(Cc1ncc(C(C)C)cn1)[C@H](CC(C)(C)C)CO2 [Compound 1077]	+++ (+++ is >600%)	> 6.00		
C=C(C)c1cnc(CN2C(=O)c3cccc(c3)S(=O)(=O)Nc3nc(cc(-c4c(C)cccc4C)n3)OC[C@H]2CC(C)(C)C)nc1 [Compound 1078]	+++ (+++ is >600%)	> 6.00		
Cc1cccc(C)c1-c1cc2nc(n1)NS(=O)(=O)c1cccc(c1)C(=O)N([C@H](C)c1ccccc1)[C@H](CC(C)(C)C)CO2 [Compound 1079]			+++ (+++ is >60%)	> 6.00
Cc1cccc(C)c1-c1cc2nc(n1)NS(=O)(=O)c1cccc(c1)C(=O)N(Cc1ccc(C(C)(C)O)cn1)[C@H](CC(C)(C)C)CO2 [Compound 1082]			+++ (+++ is >60%)	> 6.00
Cc1cccc(C)c1-c1cc2nc(n1)NS(=O)(=O)c1cccc(n1)C(=O)N(Cc1cccnc1)[C@H](CC(C)(C)C)CO2 [Compound 1083]			+++ (+++ is >60%)	> 6.00
Cc1cccc(C)c1-c1cc2nc(n1)NS(=O)(=O)c1cccc(n1)C(=O)N(Cc1ccccn1)[C@H](CC(C)(C)C)CO2 [Compound 1084]			+++ (+++ is >60%)	> 6.00

— patent publication US20240150377A1, “MODULATORS OF CYSTIC FIBROSIS TRANSMEMBRANE CONDUCTANCE REGULATOR” (VERTEX PHARMACEUTICALS INCORPORATED, priority 2020, published 2024)
